Test results taken from patent US12171864B2, “Biological self-assembled nanocrystal injection having a lymphatic targeting function and preparation method” (SHENZHEN CHINA RESOURCES JIUCHUANG MEDICAL AND …, priority 2017, dated 2024).
Counter-ions that a name gives are not always drawn.

Experiments:
lymph nodes [1] = assay: Effect of the osmotic pressure on the drug targeting ability (lymph node staining); type: in vivo, Kunming mice
Description: (§1) Mitoxantrone hydrochloride was used as a model drug. The osmotic pressure of the injection was adjusted to 112, 196, 285, 307, 1503, 2317, and 3011 mmol/Kg, respectively. The mode of administration of interstitial injection was selected for subcutaneous injection in the paws of Kunming mice. At the pre-set time points, the mice were sacrificed by cervical dislocation, and the first, second and third classes of lymph nodes were removed for observation of staining.

[2] = Effect of pH on the drug stability (drug content after 0.22 μm filtration); type: physicochemical; conditions: filtered 0.22 μm
Experimental: Mitoxantrone hydrochloride was used as a model drug. The pH of the injection was adjusted to 1.5, 2.0, 2.5, 3.5, 4.5, 5.5, 6.0, 6.5, and 7.0, respectively. At one hour after adjusting the pH value, the content of the drug was determined after filtration through a 0.22 μm membrane. When the pH was between 1.5 and 6.0, the drug content was from 98.45±0.61% to 101.72±0.20%.

injection site = assay: Effect of the osmotic pressure on the irritation of the injection site (H&E staining); type: in vivo, Kunming mice
Description: as §1, with “administration sites” for “first, second and third classes”, “the mice” for “lymph nodes”, “taken” for “removed”, “H&E staining to evaluate local irritation.” for “observation of staining.”

lymph nodes [3] = assay: Effect of pH on the drug targeting ability (lymph node staining); type: in vivo, Kunming mice
Description: as §1, with “pH” for “osmotic pressure”, “1.5, 2.0, 2.5, 3.5, 4.5, 5.5,” for “112, 196, 285, 307, 1503, 2317,”, “6.0,” for “3011 mmol/Kg,”, “nodes of the mice” for “nodes”

O=C1c2c(O)ccc(O)c2C(=O)c2c(NCCNCCO)ccc(NCCNCCO)c21 [Mitoxantrone hydrochloride]
color of third class of lymph nodes (lymph nodes [1]; osmotic pressure 285 or 2317 mmol/Kg): light blue | staining of lymph nodes (lymph nodes [1]; osmotic pressure between 285 and 2317 mmol/Kg): all the three classes of lymph nodes could be stained | staining of lymph nodes (lymph nodes [1]; osmotic pressure between 307 and 1503 mmol/Kg): all the three classes of lymph nodes could be stained into dark blue | staining of lymph nodes (lymph nodes [1]; osmotic pressure less than 285 mmol/Kg): only one class of lymph nodes could be stained | drug content ([2]; pH 6.5, one hour after adjusting pH): 83.76±0.53% | drug content ([2]; pH 7.0, one hour after adjusting pH): 75.38±0.22% | local irritation of the injection site (injection site; osmotic pressure 3011 mmol/Kg, subcutaneous injection in the paws): redness and swelling occurred and the H&E staining showed local irritation | local irritation of the injection site (injection site; other osmotic pressure values (112, 196, 285, 307, 1503, 2317 mmol/Kg)): did not show obvious local irritation | color of third class of lymph nodes (lymph nodes [3]; pH 2.0, 2.5 or 6.0, subcutaneous injection in the paws): light blue | staining of lymph nodes (lymph nodes [3]; pH between 2.0 and 6.0, subcutaneous injection in the paws): the three classes of lymph nodes could be stained | staining of lymph nodes (lymph nodes [3]; pH between 3.5 and 5.5, subcutaneous injection in the paws): all the three classes of lymph nodes could be stained into dark blue | staining of lymph nodes (lymph nodes [3]; pH less than 2.0, subcutaneous injection in the paws): only one class of lymph nodes could be stained
